Patent US11534457B2, “Use of dextran sulfate” (priority 2017, dated 2022)

How the values were obtained:
[1] = system: closed-head diffuse severe TBI (sTBI); assay: sTBI in rats, dose study, HPLC of free amino acids and amino group containing compounds (Example 7); assay type: in vivo, Male Wistar rats
[2] = system: βIII-tubulin expression in human motor neurons; assay: βIII-tubulin immunostaining (differentiation-related protein expression); assay type: cell-based; conditions: 48 h
Method: Neurons were cultured as 40,000 cells per well and Schwann cells 3,000 cells per. Cells were treated after 24 hours. The number of cells per well depended on the growth phenotype, proliferative capacity, etc.
NeuroBlast was pre-warmed to 37° C. Cells were thawed in a 37° C. water bath for no longer than 2 min. 1 ml of media was gently added drop-wise. Cells were resuspended and transferred to a 15 ml tube containing 9 ml of medium. Cells were centrifuged at 200 relative centrifugal force (RCF) for 5 min. Pellet was resuspended in 5 ml of medium and cells were counted with the Cellometer. 40,000 cells per well were seeded in previously coated 96-well plates. Cells were incubated at 37° C. with 5% CO2. Cells were allowed to settle for 24 hours before drug treatment. […]
LMW-DS was prepared in the culture media of choice for each cell line and added to the respective wells in the doses 0.01 and 0.1 mg/ml. For cell survival assays cells were analyzed after 24 and 48 hours in eight identical wells/dose/time point. Differentiation and protein expression assay was analyzed after 48 hours, also in octuplicates. […]
The Acumen cytometer allows the direct cytometric analysis of attached cells without prior detachment. […] The protein content of the cells can also be directly measured and expressed as either ‘total protein content’ or ‘mean protein content’.

[3] = 1 mg/kg s.c. single, 30 min post-sTBI, sacrifice 2 days
[4] = 5 mg/kg s.c. single, 30 min post-sTBI, sacrifice 2 days
[5] = 15 mg/kg s.c. single, 30 min post-sTBI, sacrifice 2 days
[6] = rats, 7 days post-sTBI, repeated administration of 15 mg/kg b.w.
[7] = rats, 7 days post-sTBI, single administration of 1 mg/kg b.w.
[8] = rats, 7 days post-sTBI, single administration of 5 mg/kg b.w.
[9] = rats, 7 days post-sTBI, single administration of 15 mg/kg b.w.

Substance: low molecular weight dextran sulfate [LMW-DS]
- GLN, brain concentration [1, 3]: 4.37 ± 0.59 nmol/g w.w.
- LYS, brain concentration [1, 3]: 0.29 ± 0.11 nmol/g w.w.
- ORN, brain concentration [1, 3]: 0.02 ± 0.01 nmol/g w.w.
- THR, brain concentration [1, 3]: 0.70 ± 0.15 nmol/g w.w.
- VAL, brain concentration [1, 3]: 0.07 ± 0.03 nmol/g w.w.
- ORN, brain concentration [1, 4]: 0.01 ± 0.01 nmol/g w.w.
- THR, brain concentration [1, 4]: 0.77 ± 0.17 nmol/g w.w.
- VAL, brain concentration [1, 4]: 0.08 ± 0.03 nmol/g w.w.
- GLN, brain concentration [1, 5]: 4.21 ± 0.51 nmol/g w.w.
- LEU, brain concentration [1, 5]: 0.04 ± 0.01 nmol/g w.w.
- ORN, brain concentration [1, 5]: 0.02 ± 0.01 nmol/g w.w.
- VAL, brain concentration [1, 5]: 0.06 ± 0.03 nmol/g w.w.
- isoleucine (ILE) ([1]; 2 days post sTBI): restored
- osmolyte and aromatic free amino acids ([1]; 2 days post sTBI): No remarkable effects
- free amino acids involved in NO generation (ARG, CITR) ([1]; 2 days post sTBI, 15 mg/kg b.w.): particularly effective
- free amino acids involved in neurotransmission ([1]; 2 days post sTBI, 5 or 15 mg/kg b.w.): partly effective
- methionine ([1]; 2 days post sTBI, any dose tested): Restoration
- TAU concentrations ([1]; 7 days post sTBI): normalized
- aromatic amino acids ([1]; 7 days post sTBI): caused the increase
- GLU ([1]; 7 days post sTBI, 15 mg/kg b.w. single or repeat): normalization
- free amino acids involved in NO generation (ARG, CITR) ([1]; 7 days post sTBI, 5 or 15 mg/kg b.w. (single and repeat)): particularly effective
- L-Cystathionine (L-Cystat) ([1]; 7 days post sTBI, highest dose): significant increase
- MET ([1]; 7 days post sTBI, highest dose, single or repeat): Increase
- ALA concentration in deproteinized brain homogenates [1, 6]: 0.47 ± 0.05 nmol/g w.w.
- ASN concentration in deproteinized brain homogenates [1, 6]: 0.10 ± 0.02 nmol/g w.w.
- CITR concentration in deproteinized brain homogenates [1, 6]: 0.03 ± 0.01 nmol/g w.w.
- GLN concentration in deproteinized brain homogenates [1, 6]: 3.88 ± 0.4 µmol/g w.w.
- HYS concentration in deproteinized brain homogenates [1, 6]: 0.06 ± 0.01 nmol/g w.w.
- ILE concentration in deproteinized brain homogenates [1, 6]: 0.03 ± 0.01 nmoL/g w.w.
- LEU concentration in deproteinized brain homogenates [1, 6]: 0.04 ± 0.01 nmoL/g w.w.
- LYS concentration in deproteinized brain homogenates [1, 6]: 0.23 ± 0.07 nmoL/g w.w.
- MET concentration in deproteinized brain homogenates [1, 6]: 0.05 ± 0.01 nmol/g w.w.
- THR concentration in deproteinized brain homogenates [1, 6]: 0.77 ± 0.14 nmol/g w.w.
- TYR concentration in deproteinized brain homogenates [1, 6]: 0.14 ± 0.02 nmol/g w.w.
- VAL concentration in deproteinized brain homogenates [1, 6]: 0.07 ± 0.01 nmoL/g w.w.
- ASN concentration in deproteinized brain homogenates [1, 7]: 0.10 ± 0.02 nmol/g w.w.
- CITR concentration in deproteinized brain homogenates [1, 7]: 0.03 ± 0.01 nmol/g w.w.
- GLN concentration in deproteinized brain homogenates [1, 7]: 4.1 ± 0.42 µmol/g w.w.
- HYS concentration in deproteinized brain homogenates [1, 7]: 0.06 ± 0.01 nmol/g w.w.
- LYS concentration in deproteinized brain homogenates [1, 7]: 0.19 ± 0.06 nmoL/g w.w.
- MET concentration in deproteinized brain homogenates [1, 7]: 0.03 ± 0.01 nmol/g w.w.
- TAU concentration in deproteinized brain homogenates [1, 7]: 4.02 ± 0.51 nmol/g w.w.
- THR concentration in deproteinized brain homogenates [1, 7]: 0.71 ± 0.12 nmol/g w.w.
- TYR concentration in deproteinized brain homogenates [1, 7]: 0.13 ± 0.02 nmol/g w.w.
- ASN concentration in deproteinized brain homogenates [1, 8]: 0.10 ± 0.02 nmol/g w.w.
- CITR concentration in deproteinized brain homogenates [1, 8]: 0.03 ± 0.01 nmol/g w.w.
- GLN concentration in deproteinized brain homogenates [1, 8]: 3.86 ± 0.4 µmol/g w.w.
- GLY concentration in deproteinized brain homogenates [1, 8]: 0.88 ± 0.15 nmol/g w.w.
- HYS concentration in deproteinized brain homogenates [1, 8]: 0.06 ± 0.01 nmol/g w.w.
- LYS concentration in deproteinized brain homogenates [1, 8]: 0.21 ± 0.04 nmoL/g w.w.
- MET concentration in deproteinized brain homogenates [1, 8]: 0.04 ± 0.01 nmol/g w.w.
- THR concentration in deproteinized brain homogenates [1, 8]: 0.71 ± 0.15 nmol/g w.w.
- TRP concentration in deproteinized brain homogenates [1, 8]: 0.02 ± 0.01 nmol/g w.w.
- TYR concentration in deproteinized brain homogenates [1, 8]: 0.13 ± 0.02 nmol/g w.w.
- ASN concentration in deproteinized brain homogenates [1, 9]: 0.10 ± 0.02 nmol/g w.w.
- CITR concentration in deproteinized brain homogenates [1, 9]: 0.03 ± 0.01 nmol/g w.w.
- GLN concentration in deproteinized brain homogenates [1, 9]: 3.73 ± 0.38 µmol/g w.w.
- HYS concentration in deproteinized brain homogenates [1, 9]: 0.06 ± 0.01 nmol/g w.w.
- LYS concentration in deproteinized brain homogenates [1, 9]: 0.21 ±0.05 nmoL/g w.w.
- MET concentration in deproteinized brain homogenates [1, 9]: 0.04 ± 0.01 nmol/g w.w.
- THR concentration in deproteinized brain homogenates [1, 9]: 0.72 ± 0.14 nmol/g w.w.
- TYR concentration in deproteinized brain homogenates [1, 9]: 0.14 ± 0.02 nmol/g w.w.
- βIII-tubulin expression ([2]; 0.01 and 0.1 mg/ml): significantly increased
- size of the majority of βIII-tubulin positive cells vs control cultures [2]: smaller
